Results taken from patent US20100184698A1, “USE OF A […] […] A […] AGENT” (priority 2007, published 2010).
Like-named read-outs stand apart in the source and are kept apart here. Where no end group is shown, it is not given here.

Tested on: drug-resistant Mycobacterium tuberculosis

CCNC(=O)[C@@H]1CCCN1C(=O)[C@H](CCCN=C(N)N)NC(=O)[C@H](CC(C)C)NC(=O)[C@@H](Cc1c[nH]c2ccccc12)NC(=O)[C@H](Cc1ccc(O)cc1)NC(=O)[C@H](CO)NC(=O)[C@H](Cc1c[nH]c2ccccc12)NC(=O)[C@H](Cc1cnc[nH]1)NC(=O)[C@@H]1CCC(=O)N1 [Peptide 1, Pyr-His-Trp-Ser-Tyr-D-Trp-Leu-Arg-Pro-NHEt]
inhibition of the growth of Mycobacterium tuberculosis (drug-resistant, 5 micrograms per ml): 100%

Ile-Asn-Leu-Lys-Ala-Leu-Ala-Ala-Leu-Ala-Lys-Lys-Ile-Leu-NH2 (INLKALAALAKKIL-NH2) [Peptide 2]
inhibition of the growth of Mycobacterium tuberculosis: 100%
